In ChEMBL document CHEMBL5291721, “A preclinical secondary pharmacology resource illuminates target-adverse drug reaction associations of marketed drugs” (Nat Commun, 2023) one finds AC50 data, which are given here for two compounds.

Some results are limits rather than exact numbers.

One experiment deals with T1, Glucocorticoid receptor (Homo sapiens, UniProt P04150).
T1 sequence (P04150 whole entry): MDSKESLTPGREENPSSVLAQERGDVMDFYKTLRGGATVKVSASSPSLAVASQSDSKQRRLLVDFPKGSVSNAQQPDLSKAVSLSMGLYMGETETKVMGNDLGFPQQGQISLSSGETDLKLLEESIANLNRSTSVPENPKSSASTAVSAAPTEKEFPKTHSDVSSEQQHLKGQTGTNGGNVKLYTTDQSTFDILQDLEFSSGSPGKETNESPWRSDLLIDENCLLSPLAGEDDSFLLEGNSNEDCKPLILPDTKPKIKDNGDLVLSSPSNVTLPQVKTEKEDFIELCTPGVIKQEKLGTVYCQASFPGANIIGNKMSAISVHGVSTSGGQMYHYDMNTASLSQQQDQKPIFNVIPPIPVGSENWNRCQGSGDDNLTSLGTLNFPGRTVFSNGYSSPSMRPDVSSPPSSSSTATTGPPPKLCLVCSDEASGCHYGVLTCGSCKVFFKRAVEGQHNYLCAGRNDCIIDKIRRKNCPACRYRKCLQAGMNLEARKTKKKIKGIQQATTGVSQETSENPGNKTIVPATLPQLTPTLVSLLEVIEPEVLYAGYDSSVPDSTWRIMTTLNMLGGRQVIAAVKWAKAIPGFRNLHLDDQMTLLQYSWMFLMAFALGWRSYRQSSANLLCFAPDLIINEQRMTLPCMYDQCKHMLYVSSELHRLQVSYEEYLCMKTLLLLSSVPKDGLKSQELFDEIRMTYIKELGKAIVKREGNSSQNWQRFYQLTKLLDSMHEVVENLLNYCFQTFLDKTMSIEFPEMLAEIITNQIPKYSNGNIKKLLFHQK
The experiment is classed as functional.

In experiment [1] the target is T2, Alpha-2C adrenergic receptor (Homo sapiens, UniProt P18825).
T2 sequence (P18825 whole entry): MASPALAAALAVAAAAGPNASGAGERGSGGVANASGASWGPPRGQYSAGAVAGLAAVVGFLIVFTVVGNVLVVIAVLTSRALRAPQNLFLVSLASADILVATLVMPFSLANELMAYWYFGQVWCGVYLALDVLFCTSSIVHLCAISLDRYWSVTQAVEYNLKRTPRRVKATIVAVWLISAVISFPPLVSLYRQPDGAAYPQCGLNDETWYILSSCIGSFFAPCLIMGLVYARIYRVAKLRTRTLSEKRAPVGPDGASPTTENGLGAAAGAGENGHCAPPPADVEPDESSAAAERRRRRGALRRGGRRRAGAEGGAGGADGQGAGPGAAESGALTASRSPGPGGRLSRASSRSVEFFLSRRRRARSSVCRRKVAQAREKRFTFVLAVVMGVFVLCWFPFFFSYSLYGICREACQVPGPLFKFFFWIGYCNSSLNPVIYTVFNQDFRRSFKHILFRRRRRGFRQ
The experiment is classed as functional.

Compound `COc1cccc2c1C(=O)c1c(O)c3c(c(O)c1C2=O)C[C@@](O)(C(C)=O)C[C@@H]3O[C@H]1C[C@H](N)[C@H](O)[C@H](C)O1` [DAUNORUBICIN] came in with an AC50 on Glucocorticoid receptor of more than 10 µM.
`CC(C)CC(N(C)C)C1(c2ccc(Cl)cc2)CCC1` (configuration not stated) [SIBUTRAMINE]: the AC50 in experiment [1] was 758 nM.

For orientation: AC50 means the concentration at which the activity in the assay is half-maximal.
